Test results published in ChEMBL document CHEMBL1139094, “The synthesis and structure-activity relationship studies of selective acetyl-CoA carboxylase inhibitors containing 4-(thiazol-5-yl)but-3-yn-2-amino motif: polar region modifications” (Bioorg Med Chem Lett, 2007).

Assays:
[1] = target: Acetyl-CoA carboxylase 1 (Homo sapiens, UniProt Q13085); experiment: Inhibition of ACC1
[2] = target: Acetyl-CoA carboxylase 2 (Homo sapiens, UniProt O00763); experiment: Inhibition of ACC2
[3] = organism: Homo sapiens; experiment: Selectivity for human ACC2 over ACC1

Acetyl-CoA carboxylase 2, sequence (O00763 whole entry): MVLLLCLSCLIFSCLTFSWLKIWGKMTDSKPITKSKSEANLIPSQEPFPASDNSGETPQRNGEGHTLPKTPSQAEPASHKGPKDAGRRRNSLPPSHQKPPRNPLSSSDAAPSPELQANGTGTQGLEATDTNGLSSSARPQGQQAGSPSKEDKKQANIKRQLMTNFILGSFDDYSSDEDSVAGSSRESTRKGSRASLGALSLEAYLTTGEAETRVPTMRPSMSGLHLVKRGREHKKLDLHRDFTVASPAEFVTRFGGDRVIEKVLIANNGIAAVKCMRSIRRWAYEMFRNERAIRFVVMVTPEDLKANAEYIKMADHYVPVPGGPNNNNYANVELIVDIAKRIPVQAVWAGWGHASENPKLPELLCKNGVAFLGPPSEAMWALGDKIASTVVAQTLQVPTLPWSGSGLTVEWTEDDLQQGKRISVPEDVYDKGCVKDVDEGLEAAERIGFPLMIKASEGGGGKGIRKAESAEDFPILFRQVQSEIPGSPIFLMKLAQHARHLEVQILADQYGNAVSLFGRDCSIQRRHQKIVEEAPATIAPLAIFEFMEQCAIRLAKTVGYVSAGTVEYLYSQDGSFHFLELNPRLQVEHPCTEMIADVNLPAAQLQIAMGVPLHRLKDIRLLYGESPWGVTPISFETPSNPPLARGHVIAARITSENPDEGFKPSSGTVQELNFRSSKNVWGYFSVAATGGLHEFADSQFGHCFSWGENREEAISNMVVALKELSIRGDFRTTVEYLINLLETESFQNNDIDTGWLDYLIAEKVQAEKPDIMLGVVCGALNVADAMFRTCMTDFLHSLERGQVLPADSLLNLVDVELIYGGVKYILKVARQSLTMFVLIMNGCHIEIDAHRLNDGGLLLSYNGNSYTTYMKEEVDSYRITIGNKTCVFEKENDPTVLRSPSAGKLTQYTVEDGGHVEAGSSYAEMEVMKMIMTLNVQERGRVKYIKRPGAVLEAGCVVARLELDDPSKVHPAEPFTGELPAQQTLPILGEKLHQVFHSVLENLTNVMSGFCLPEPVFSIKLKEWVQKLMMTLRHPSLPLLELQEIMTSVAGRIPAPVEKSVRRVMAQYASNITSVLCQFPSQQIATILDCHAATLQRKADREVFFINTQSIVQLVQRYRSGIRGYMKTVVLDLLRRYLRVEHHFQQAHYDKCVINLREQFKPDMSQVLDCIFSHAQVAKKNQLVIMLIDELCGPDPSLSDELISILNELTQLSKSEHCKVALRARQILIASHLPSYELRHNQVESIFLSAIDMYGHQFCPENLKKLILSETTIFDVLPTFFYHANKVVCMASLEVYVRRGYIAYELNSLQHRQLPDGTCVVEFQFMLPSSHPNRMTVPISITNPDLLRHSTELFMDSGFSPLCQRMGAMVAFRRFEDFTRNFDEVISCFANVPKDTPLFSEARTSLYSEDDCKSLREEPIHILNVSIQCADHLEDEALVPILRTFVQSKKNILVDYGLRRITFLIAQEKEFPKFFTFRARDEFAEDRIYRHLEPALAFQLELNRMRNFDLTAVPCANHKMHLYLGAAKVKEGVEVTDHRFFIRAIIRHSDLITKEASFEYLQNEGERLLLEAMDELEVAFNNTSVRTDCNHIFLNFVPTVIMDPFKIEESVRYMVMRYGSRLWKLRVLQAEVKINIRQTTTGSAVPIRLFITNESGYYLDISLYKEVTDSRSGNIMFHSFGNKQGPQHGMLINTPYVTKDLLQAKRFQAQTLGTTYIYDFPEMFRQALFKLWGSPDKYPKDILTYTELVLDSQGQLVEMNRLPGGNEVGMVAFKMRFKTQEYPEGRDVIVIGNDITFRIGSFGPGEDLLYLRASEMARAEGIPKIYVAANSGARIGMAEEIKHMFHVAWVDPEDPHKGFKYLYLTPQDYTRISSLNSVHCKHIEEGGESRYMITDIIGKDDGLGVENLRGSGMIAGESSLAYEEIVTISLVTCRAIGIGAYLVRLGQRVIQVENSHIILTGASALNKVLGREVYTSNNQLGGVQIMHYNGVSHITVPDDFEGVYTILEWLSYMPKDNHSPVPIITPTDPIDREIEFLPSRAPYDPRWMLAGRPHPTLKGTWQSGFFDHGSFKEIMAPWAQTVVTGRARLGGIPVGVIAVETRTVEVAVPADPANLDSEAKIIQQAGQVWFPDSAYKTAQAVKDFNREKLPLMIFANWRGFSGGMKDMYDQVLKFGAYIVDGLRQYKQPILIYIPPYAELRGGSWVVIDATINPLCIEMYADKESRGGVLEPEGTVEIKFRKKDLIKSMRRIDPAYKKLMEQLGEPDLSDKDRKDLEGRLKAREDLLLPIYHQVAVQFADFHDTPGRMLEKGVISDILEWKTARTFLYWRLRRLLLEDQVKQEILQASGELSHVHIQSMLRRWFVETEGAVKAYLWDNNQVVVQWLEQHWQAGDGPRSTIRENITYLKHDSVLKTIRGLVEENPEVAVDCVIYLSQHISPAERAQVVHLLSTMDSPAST

| Structure (SMILES) | IC50 [1] [nM] | IC50 [2] [nM] | Ratio IC50 [3] |
| --- | --- | --- | --- |
| CC(C#Cc1cnc(Oc2ccc(OC(C)C)cc2)s1)NC(=O)C(=O)O (stereo not drawn) | > 30000 | > 30000 |  |
| CC(=O)NCC#Cc1cnc(Oc2ccc(OC(C)C)cc2)s1 |  | 1860 |  |
| CC(C#Cc1cnc(Oc2ccc(OC(C)C)cc2)s1)NC(=O)C1CCCC1 (stereo not drawn) | > 30000 | 570 |  |
| COC(=O)C(=O)NC(C)C#Cc1cnc(Oc2ccc(OC(C)C)cc2)s1 (stereo not drawn) | > 30000 | 850 |  |
| CC(C#Cc1cnc(Oc2ccc(OC(C)C)cc2)s1)NC(=O)ON (stereo not drawn) | > 30000 | 680 |  |
| CC(C#Cc1cnc(Oc2ccc(OC(C)C)cc2)s1)NC(=O)N1CCOCC1 (stereo not drawn) | > 30000 | 670 |  |
| CC(C#Cc1cnc(Oc2ccc(Oc3ccccc3)cc2)s1)Nc1nc2ccccc2s1 (stereo not drawn) | > 30000 | > 30000 |  |
| CC(C#Cc1cnc(Oc2ccc(Oc3ccccc3)cc2)s1)Nc1ncc[nH]1 (stereo not drawn) | > 30000 | 3980 |  |
| CC(C#Cc1cnc(Oc2ccc(Oc3ccccc3)cc2)s1)Nc1nccs1 (stereo not drawn) | 10700 | 690 |  |
| CC(C#Cc1cnc(Oc2ccc(OC(C)C)cc2)s1)NC(=O)NCC(N)=O (stereo not drawn) | > 30000 | 920 |  |
| CC(C)CONC(=O)NC(C)C#Cc1cnc(Oc2ccc(OC(C)C)cc2)s1 (stereo not drawn) | > 30000 | 20500 |  |
| CC(=O)NC(C#Cc1cnc(Oc2ccc(OC(C)C)cc2)s1)c1ccccc1 (stereo not drawn) | > 30000 | > 30000 |  |
| CC(=O)NC(C#Cc1cnc(Oc2ccc(OC(C)C)cc2)s1)C1CC1 (stereo not drawn) |  | 880 |  |
| CC(C#Cc1cnc(Oc2ccc(OC(C)C)cc2)s1)NC(=O)[C@@H]1CCCN1 (stereo partly drawn) | > 30000 | > 30000 |  |
| CC(=O)NC(C#Cc1cnc(Oc2ccc(OC(C)C)cc2)s1)CO (stereo not drawn) | > 30000 | 910 |  |

Now those with a lower IC50 [2], led by results:

| IC50 [1] [nM] | IC50 [2] [nM] | Ratio IC50 [3] | Structure (SMILES) |
| --- | --- | --- | --- |
| > 30000 | 530 |  | CCC(C#Cc1cnc(Oc2ccc(OC(C)C)cc2)s1)NC(C)=O (stereo not drawn) |
| > 30000 | 500 |  | CC(=O)NC(C)(C)C#Cc1cnc(Oc2ccc(OC(C)C)cc2)s1 |
| > 30000 | 440 |  | CCn1ccc(NC(C)C#Cc2cnc(Oc3ccc(Oc4ccccc4)cc3)s2)n1 (stereo not drawn) |
| > 30000 | 330 |  | CC(C#Cc1cnc(Oc2ccc(OC(C)C)cc2)s1)NC(=O)NO (stereo not drawn) |
| > 30000 | 220 |  | CC(C#Cc1cnc(Oc2ccc(OC(C)C)cc2)s1)NC(=O)C1CCOC1 (stereo not drawn) |
| > 30000 | 83 |  | Cc1cc(NC(C)C#Cc2cnc(Oc3ccc(Oc4ccccc4)cc3)s2)no1 (stereo not drawn) |
|  | 75 | > 1000 | CC(C#Cc1cnc(Oc2ccc(Oc3ccccc3)cc2)s1)N(O)C(N)=O (stereo not drawn) |
| > 30000 | 71 |  | CC(C#Cc1cnc(Oc2ccc(OC(C)C)cc2)s1)NC(=O)N(C)C (stereo not drawn) |
| > 30000 | 57 |  | Cc1cc(NC(C)C#Cc2cnc(Oc3ccc(Oc4ccccc4)cc3)s2)on1 (stereo not drawn) |
| 5020 | 42 |  | CC(C#Cc1cnc(Oc2ccc(Oc3ccccc3)cc2)s1)Nc1ccon1 (stereo not drawn) |
| > 30000 | 38 |  | Cc1noc(NC(C)C#Cc2cnc(Oc3ccc(Oc4ccccc4)cc3)s2)c1C (stereo not drawn) |
| > 30000 | 37 |  | CC(C#Cc1cnc(Oc2ccc(OC(C)C)cc2)s1)NC(N)=O (stereo not drawn) |
|  | 32 |  | CNC(=O)NC(C)C#Cc1cnc(Oc2ccc(OC(C)C)cc2)s1 (stereo not drawn) |
